We go through 17 compounds from ChEMBL document CHEMBL1201862, “PubChem BioAssay data set” (2004).

The term EC50 denotes the concentration that produces a half-maximal response. Broadly, the AC50 is the midpoint of the concentration-response curve, whichever way the signal moves.

Series [1] has as its target Fatty acid synthase (Homo sapiens, UniProt P49327). The experiment in a line: FAS thioesterase domain inhibitors, dose response, biochemical, kinetic fluorescence intensity (AID 624326).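 Further: rate of fluorescence rise from hydrolysis of a fluorogenic O-methyl fluorescein ester substrate.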 The format is functional.
In series [2] the target is Voltage-dependent T-type calcium channel subunit alpha-1H (Homo sapiens, UniProt O95180). The format is functional.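 Further: channel activity triggered by adding a high calcium stimulation buffer.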
Series [3] deals with Cytochrome P450 2D6 (Homo sapiens, UniProt P10635).
Series [4] concerns the target Cytochrome P450 2C9 (Homo sapiens, UniProt P11712).
Series [5] has as its target Induced myeloid leukemia cell differentiation protein Mcl-1 (Homo sapiens, UniProt Q07820). The format is functional.
A short description of series [6]: MC4R antagonists, dose response, counter-screen for LGR2 antagonist project, cell-based, plate reader, cherry pick (AID 743444).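 Further: transfected HEK 293 cells stimulated with alpha-MSH peptide; potency of inhibitors of the alpha-MSH evoked signal.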 The format is functional. In general terms: The purpose of a counterscreen is to sort out artefacts and off-target activity.
The nature of series [7]: Luminescence Cell-Based Dose Retest to Confirm Inhibitors of Cancer Stem Cells. [Related pubchem assays (depositor defined):AID2717, AID2721]. The format is functional. Conditions: Homo sapiens.
Series [8] in a line: cytotoxicity toward NIH3T3 fibroblasts, dose response, counter-screen, cell-based, ATP luminescence, mouse fibroblasts (AID 2010).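 Further: cells exposed to compound for about 90 hours before reading.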 The format is functional.
Series [9] in a line: LGR2 antagonists, dose response, cell-based, HEK293, CRE-luciferase reporter, cherry pick, set 2 (AID 743343).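 Further: transfected cells were stimulated with diluted bursicon conditioned medium after compound addition.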 The format is functional. (In general: A reporter such as luciferase makes a cellular process visible.)
Series [10] can be described thus: inhibitors of intracellular T. cruzi replication, confirmation, NIH3T3 host cells, beta-gal luminescence (AID 2044).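 Further: intracellular parasites grown in NIH/3T3 mouse fibroblasts as host cells; luminescent beta-galactosidase reporter signal from transgenic T. cruzi replicating inside host cells; inhibitors lower the luminescence signal.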 The format is functional, cell-based.
The target of series [11] is T1, Cytochrome P450 1A2 (Homo sapiens, UniProt P05177).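 Further: PubChem cytochrome P450 panel assay, CYP1A2 panel member.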
T1 sequence (P05177 whole entry): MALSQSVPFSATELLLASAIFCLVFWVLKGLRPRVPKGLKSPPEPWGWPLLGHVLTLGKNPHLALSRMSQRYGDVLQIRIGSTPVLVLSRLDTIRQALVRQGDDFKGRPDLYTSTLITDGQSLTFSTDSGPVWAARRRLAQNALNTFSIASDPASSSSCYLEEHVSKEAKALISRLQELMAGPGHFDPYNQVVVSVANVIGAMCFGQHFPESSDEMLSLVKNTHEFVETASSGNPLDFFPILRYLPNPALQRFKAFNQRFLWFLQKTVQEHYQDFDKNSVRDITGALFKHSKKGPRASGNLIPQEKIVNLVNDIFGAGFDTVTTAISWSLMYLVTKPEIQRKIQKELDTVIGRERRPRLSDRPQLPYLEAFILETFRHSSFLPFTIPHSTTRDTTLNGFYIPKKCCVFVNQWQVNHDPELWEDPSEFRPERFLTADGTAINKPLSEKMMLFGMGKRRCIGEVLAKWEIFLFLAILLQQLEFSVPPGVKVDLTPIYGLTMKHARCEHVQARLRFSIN

Series [12] is described as follows: cytotoxicity in HPDE-C7 cells, cell-based, fluorescence, HTS (AID 430). The format is functional. Conditions: Homo sapiens.
Series [13] can be described thus: cytotoxicity in KRAS-transformed pancreatic duct cells, primary screen, cell-based, fluorescence, HTS (AID 431).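 Further: cell line used: HPDE-C7K.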 The following applies: Homo sapiens. The format is functional.
Series [14] is described as follows: growth suppression of PTEN-null colon cells, dose response, cell-based, HCT116 PTEN knockout (AID 1047).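 Further: HCT116 colon tumor cells with PTEN knocked out; cells exposed to compound for 60 hours before readout; potency for loss of cell viability measured by luminescence.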 The format is functional.
Series [15] in a line: growth suppression of beta-catenin-knockout colon cells, dose response, cell-based, HCT116, human colon tumor (AID 1045).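 Further: HCT116 colon tumor cells with beta catenin knocked out; cells exposed to compound for 60 hours.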 The format is functional.
Series [16] concerns the target T2, Polyadenylate-binding protein 1 (Homo sapiens, UniProt P11940). The experiment in a line: PABP1 MLLE–PAM2 interaction inhibitors, dose response, miRNA deadenylation inhibitor project, biochemical, fluorescence polarization, Cy5-PAM2 peptide, secondary (AID 602260). The following applies: read-out: IC50_Mean. The format is functional. (In general: In fluorescence polarisation assays a small probe gives low polarisation when free and higher when bound to something large.)

For series [17], the target named is T2, Polyadenylate-binding protein 1. The experiment in a line: PABP1 MLLE–PAM2 binding inhibitor potency, dose response, biochemical, fluorescence polarization, FITC-PAM2 peptide (AID 602259). The format is functional. The following applies: read-out: IC50_Mean.
Series [18] in a line: Luminescence Cell-Based Dose Confirmation HTS to Identify Activators of 5'UTR Stem-Loop Driven Alpha-Synuclein mRNA Translation in H4 Neuroglioblastoma Cells. [Related pubchem assays: 1829 (Project Summary), 1814 (Primary HTS)]. The format is functional.
Series [19] is described as follows: microbe, parasite or virus in culture. Conditions: Mycobacterium tuberculosis. The format is functional.
Series [20] deals with H4. Kind of series: Luminescence Cell-Based Dose Response HTS to Identify Activators of 5'UTR Stem-Loop Driven Prion Protein mRNA Translation in H4 Neuroglioblastoma Cells. [Related pubchem assays: 1829 (Project Summary), 1814 (Primary HTS)]. The format is functional. Conditions: Homo sapiens.
Series [21] is described as follows: Luminescence Cell-Based Dose Response HTS to Identify Activators of Luciferase Translation or Activity in H4 […] Cells. [Related pubchem assays: 1829 (Project Summary), 1814 (Primary HTS)]. The format is functional.
Series [22] is described as follows: cytotoxicity in HEK-293T cells, dose response, cytotoxicity control for TCR NF-kB inhibitor project, luminescence, T-cell screen hits (AID 489026).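 Further: cells exposed to compound about 14 hours before the viability readout.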 The format is functional, cell-based.
For series [23], the target named is Cytochrome P450 3A4 (Homo sapiens, UniProt P08684).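 Further: CYP3A4 tested as one member of a cytochrome P450 panel screen.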

Calls of active or inactive are those of the source.

Sequence of Cytochrome P450 2C9 (P11712 whole entry): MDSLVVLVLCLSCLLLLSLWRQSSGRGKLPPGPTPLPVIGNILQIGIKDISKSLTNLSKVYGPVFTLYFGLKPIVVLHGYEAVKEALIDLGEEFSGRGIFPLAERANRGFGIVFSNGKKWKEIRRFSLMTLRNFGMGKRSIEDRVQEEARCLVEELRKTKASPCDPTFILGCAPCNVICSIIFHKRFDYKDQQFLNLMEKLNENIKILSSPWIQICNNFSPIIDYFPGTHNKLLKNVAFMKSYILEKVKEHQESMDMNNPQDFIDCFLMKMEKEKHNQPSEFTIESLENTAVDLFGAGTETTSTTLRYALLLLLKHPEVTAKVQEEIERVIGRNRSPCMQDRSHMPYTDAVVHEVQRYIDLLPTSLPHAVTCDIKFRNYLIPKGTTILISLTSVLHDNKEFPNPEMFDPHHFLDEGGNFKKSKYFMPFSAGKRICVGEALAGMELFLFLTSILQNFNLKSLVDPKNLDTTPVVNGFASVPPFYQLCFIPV
Sequence of Voltage-dependent T-type calcium channel subunit alpha-1H (O95180 whole entry): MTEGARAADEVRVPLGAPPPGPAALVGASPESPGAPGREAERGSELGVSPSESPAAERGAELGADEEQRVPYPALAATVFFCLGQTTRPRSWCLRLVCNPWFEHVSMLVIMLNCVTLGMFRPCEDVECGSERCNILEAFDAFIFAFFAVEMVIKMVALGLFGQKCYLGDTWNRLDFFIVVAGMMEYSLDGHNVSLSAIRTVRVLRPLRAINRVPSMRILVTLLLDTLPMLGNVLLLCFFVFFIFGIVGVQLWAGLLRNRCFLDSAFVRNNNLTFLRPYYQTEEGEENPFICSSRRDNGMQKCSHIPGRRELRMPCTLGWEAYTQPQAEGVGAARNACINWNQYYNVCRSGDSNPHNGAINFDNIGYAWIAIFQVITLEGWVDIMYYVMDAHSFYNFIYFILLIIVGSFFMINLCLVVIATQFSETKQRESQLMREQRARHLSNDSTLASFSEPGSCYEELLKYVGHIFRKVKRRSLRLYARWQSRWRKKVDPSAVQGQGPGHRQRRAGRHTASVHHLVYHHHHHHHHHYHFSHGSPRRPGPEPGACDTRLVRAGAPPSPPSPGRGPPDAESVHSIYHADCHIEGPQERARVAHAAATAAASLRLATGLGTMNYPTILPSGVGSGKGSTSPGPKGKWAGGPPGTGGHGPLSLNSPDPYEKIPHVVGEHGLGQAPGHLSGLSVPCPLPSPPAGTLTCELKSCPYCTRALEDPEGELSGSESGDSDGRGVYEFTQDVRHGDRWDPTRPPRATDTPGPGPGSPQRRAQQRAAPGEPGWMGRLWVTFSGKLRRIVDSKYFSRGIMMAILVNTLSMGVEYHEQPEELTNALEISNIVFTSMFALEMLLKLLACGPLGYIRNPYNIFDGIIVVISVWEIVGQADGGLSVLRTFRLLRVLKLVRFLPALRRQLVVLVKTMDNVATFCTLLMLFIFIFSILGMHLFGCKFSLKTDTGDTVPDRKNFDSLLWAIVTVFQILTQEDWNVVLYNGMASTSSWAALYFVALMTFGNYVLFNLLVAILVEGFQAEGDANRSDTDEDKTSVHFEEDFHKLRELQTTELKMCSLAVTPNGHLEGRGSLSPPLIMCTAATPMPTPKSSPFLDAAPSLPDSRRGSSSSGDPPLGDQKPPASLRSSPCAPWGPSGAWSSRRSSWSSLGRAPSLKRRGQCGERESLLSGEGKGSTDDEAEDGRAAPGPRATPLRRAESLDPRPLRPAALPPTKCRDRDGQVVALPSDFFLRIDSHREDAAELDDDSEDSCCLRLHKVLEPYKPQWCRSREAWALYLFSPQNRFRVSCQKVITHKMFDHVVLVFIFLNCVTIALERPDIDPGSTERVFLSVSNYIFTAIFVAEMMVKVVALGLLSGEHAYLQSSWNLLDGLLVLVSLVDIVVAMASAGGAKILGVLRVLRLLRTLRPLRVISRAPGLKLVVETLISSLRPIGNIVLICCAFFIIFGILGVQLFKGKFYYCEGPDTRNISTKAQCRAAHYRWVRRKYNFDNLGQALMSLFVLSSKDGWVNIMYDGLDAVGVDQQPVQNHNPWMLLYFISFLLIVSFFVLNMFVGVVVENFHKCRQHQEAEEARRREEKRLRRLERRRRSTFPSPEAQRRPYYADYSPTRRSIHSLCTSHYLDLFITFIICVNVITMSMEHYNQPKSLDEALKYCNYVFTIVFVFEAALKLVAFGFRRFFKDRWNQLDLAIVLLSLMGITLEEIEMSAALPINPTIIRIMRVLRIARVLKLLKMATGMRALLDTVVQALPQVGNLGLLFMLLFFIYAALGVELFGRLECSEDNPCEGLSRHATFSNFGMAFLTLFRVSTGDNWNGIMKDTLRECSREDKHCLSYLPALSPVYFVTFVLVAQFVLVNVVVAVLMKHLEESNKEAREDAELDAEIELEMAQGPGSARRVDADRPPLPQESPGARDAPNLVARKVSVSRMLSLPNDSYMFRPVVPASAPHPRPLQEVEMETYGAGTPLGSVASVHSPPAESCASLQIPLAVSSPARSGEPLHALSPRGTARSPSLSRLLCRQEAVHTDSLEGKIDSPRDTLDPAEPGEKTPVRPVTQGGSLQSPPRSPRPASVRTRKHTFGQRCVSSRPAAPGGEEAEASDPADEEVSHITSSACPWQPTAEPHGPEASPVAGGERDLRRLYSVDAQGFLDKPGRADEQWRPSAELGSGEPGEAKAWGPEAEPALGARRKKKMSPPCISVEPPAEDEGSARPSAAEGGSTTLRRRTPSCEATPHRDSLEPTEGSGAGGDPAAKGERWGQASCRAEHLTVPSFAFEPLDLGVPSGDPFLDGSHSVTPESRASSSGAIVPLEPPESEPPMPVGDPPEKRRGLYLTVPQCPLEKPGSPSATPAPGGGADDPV
Sequence of Induced myeloid leukemia cell differentiation protein Mcl-1 (Q07820 whole entry): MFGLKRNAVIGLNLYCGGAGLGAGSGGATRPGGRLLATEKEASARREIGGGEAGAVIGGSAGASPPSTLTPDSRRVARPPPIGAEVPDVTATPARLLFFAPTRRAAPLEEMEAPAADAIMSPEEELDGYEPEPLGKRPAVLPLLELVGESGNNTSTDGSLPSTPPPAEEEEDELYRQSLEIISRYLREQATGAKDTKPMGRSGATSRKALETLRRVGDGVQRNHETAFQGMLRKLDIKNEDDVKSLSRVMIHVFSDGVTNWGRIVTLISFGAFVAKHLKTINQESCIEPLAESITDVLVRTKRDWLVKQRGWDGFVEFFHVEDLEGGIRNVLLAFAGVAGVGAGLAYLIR
T2 sequence (P11940 whole entry): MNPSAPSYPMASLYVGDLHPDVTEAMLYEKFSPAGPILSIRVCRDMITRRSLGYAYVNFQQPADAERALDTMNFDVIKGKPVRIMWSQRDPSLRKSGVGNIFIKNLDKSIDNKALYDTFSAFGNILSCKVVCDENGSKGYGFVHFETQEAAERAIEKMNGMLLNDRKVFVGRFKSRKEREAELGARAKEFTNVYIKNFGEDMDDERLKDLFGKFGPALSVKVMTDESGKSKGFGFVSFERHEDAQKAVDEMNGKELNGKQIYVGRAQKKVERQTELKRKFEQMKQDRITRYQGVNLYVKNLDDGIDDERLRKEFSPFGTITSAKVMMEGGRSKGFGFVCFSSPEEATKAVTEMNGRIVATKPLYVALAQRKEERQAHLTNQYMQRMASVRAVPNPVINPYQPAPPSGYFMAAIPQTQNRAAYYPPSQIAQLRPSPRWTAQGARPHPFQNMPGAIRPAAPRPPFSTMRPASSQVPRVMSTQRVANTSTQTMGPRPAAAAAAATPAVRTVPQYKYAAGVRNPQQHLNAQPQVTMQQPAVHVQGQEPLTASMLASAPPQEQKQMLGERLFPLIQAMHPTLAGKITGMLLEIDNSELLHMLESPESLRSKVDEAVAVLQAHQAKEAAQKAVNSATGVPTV
Sequence of Cytochrome P450 2D6 (P10635 whole entry): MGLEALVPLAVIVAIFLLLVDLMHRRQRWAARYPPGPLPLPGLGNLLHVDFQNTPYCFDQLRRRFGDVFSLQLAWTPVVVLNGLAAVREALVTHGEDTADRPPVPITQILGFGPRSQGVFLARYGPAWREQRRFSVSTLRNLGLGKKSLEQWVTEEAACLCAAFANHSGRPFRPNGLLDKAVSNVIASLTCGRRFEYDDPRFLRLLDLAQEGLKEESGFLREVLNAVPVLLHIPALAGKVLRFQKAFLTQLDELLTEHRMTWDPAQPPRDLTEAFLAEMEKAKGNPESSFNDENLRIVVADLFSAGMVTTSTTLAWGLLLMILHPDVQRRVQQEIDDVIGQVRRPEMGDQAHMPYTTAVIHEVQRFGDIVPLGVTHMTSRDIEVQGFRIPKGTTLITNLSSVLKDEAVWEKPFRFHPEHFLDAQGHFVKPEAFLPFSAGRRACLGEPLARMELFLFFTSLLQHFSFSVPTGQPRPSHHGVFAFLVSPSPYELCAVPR
Sequence of Cytochrome P450 3A4 (P08684 whole entry): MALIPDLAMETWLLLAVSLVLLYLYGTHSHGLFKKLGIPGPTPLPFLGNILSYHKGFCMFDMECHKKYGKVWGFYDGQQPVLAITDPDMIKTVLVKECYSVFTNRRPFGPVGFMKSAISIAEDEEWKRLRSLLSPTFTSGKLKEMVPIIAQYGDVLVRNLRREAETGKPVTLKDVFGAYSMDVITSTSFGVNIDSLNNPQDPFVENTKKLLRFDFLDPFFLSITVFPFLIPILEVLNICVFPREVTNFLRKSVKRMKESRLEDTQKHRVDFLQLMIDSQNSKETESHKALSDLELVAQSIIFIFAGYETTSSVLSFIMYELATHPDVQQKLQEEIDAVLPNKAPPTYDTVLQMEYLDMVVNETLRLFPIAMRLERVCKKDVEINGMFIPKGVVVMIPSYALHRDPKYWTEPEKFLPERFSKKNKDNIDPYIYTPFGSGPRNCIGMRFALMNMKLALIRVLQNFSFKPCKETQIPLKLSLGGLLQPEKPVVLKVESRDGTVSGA

Turning to `CC(C)(C)OC(=O)NCCCC[C@H](NC(=O)c1[nH]cnc1C(=O)NC1CCN(C(=O)OC(C)(C)C)CC1)C(=O)OC(C)(C)C`, the IC50 in series [1] was 1.6 µM (active).

As for `CN(CCOc1ccc(Cl)cc1)c1ccc(S(=O)(=O)N2CCCCC2)cn1`, the concentration giving a half-maximal response (EC50) in series [2] is 2.82 µM (active).

For the compound `Cc1cccc(COCC(Cc2ccccc2)N2CCN(C(=O)c3cc(Cl)cc(Cl)c3)CCC2=O)c1` (stereo unspecified), the concentration for a half-maximal effect (EC50) in series [2] is 3.04 µM (active).

Consider `CS(=O)(=O)Nc1cccc(-c2cc(NCc3cccs3)ncn2)c1`, for which the figures for the AC50 in [3] and in series [4] were 20 µM (inconclusive) and “inconclusive”, respectively.

On to `CC1CCCCC12NC(=O)N(CC(=O)Nc1sc3c(c1C(N)=O)CCC3)C2=O` (stereo unspecified), for which the IC50 in series [5] is 3.5 µM (active).

As for `O=C1c2ccccc2C(Nc2ccc(F)c(Cl)c2)N1Cc1ccco1` (stereo unspecified), the EC50 in series [2] is 3.88 µM (active).

Consider `CC(C)Oc1ccc(CNC(=O)CC(c2ccccc2)c2cc(Cl)ccc2O)cc1` (stereo unspecified), for which the AC50 in series [6] is 26.7 µM (active); in [7], 5.73 µM (active); in [9], 28 µM (active); in [11] it was 28.2 µM (inconclusive). In addition, the EC50 was > 30 µM (not active) in series [8] and 2.17 µM (active) in series [10].

For `CCCC1(CCC)C(=O)N=C(NCc2ccccc2)NC1=O`, the half-maximal effective concentration (EC50) in series [12] was 14.4 µM (active); in [13] it was 13.4 µM (active).

Take `COc1cc(-c2nnc(SCC3(c4ccccc4)OCCO3)o2)cc(OC)c1OC`: the half-maximal activity concentration (AC50) entry in [4] is “inconclusive”.

On to `O=C(Nc1ccc2c(c1)CCC2)c1cccc(S(=O)(=O)N2CCN(c3ccccc3)CC2)c1`, for which the EC50 in series [2] was 6.08 µM (active).

As to `CCC(Sc1nc2cc3c(cc2c(=O)n1Cc1ccco1)OCO3)C(=O)Nc1cccc(OC)c1` (stereo unspecified), the EC50 was 3.73 µM (active) in series [14], 4.41 µM (active) in series [12], 3.68 µM (active) in series [15] and 4.17 µM (active) in series [13]. Also, the concentration at half-maximal activity (AC50) in series [11] is 4.47 µM (inconclusive).

Turning to `COc1ccc(C2CC(c3cccs3)=Nc3ccccc3S2)cc1` (stereo unspecified), the IC50 in [16] and in [17] was > 66 µM (inactive) each time. The concentration for a half-maximal effect (EC50) in series [18] is 7.19 µM (active); in series [20], 7.12 µM (active); in series [21] it was 9.21 µM (active). Besides, in series [19], the CC50 is > 40 µM (active).

`Cc1ccc(-c2nc3ccccn3c2NCc2ccc3c(c2)OCO3)cc1`: the EC50 in series [2] is 12.8 µM (active).

In the case of `Cc1cccc(OCCNC(=O)c2ccc(Cl)c(S(=O)(=O)NCc3cccnc3)c2)c1`, the IC50 in series [22] is > 80 µM (inactive).

With `CC(=O)Nc1sc(N/N=C/c2ccc(O)cc2)nc1-c1ccc(C)cc1`, the IC50 in series [5] is 2.84 µM (active).

Regarding `COc1cc(N)c(Cl)cc1C(=O)NC1CCN(Cc2ccccc2)CC1` [CLEBOPRIDE], the results for the concentration at half-maximal activity (AC50) in series [23], in series [4] and in series [11] were 3.16 µM (inconclusive), “inconclusive” and 12.6 µM (inconclusive), respectively.

On to `COc1ccc2c(c1O)-c1c(OC)c(OC)cc3c1[C@H](C2)N(C)CC3` [ISOCORYDINE], for which the AC50 entry is “inconclusive” in [4] and 10 µM (inconclusive) in series [11].
